Values of other authors in patent publication US4721704A, “Potent synthetic atrial peptide analogs” (Peninsula Laboratories, Inc., priority 1986, dated 1988).
Ends that are not written are not given here.

Legend:
[1] = system: patients; conditions: 400 μg bolus doses
[2] = Atriopeptin III and α-hANP compared with each other

In the case of “α-human atrial natriuretic polypeptide (SLRRSSCFGGRMDRIGAQSGLGCNSFRY; ends and bridges not checked; cysteine pairing not given here; UniProt P01160 124-151, looked up) [α-hANP, peptide isolated from human atria]”, the diuretic action [1] is listed as “acting as a diuretic”, the “effect on blood pressure” value [1] is listed as “decreasing blood pressure” and the “hypotensive, diuretic and natriuretic activities” value [2] is listed as “about comparable”.
